Source: ChEMBL document CHEMBL5154919, “New ZW4864 Derivatives as Small-Molecule Inhibitors for the β-Catenin/BCL9 Protein-Protein Interaction” (ACS Med Chem Lett, 2022)
Calls of active or inactive are those of the source. The calls are words filed in the database; no cut-off is given here.

Assays:
[1] = molecular target: T1, beta-catenin-B-cell lymphoma 9 protein complex (Homo sapiens, UniProt P35222); experiment: Inhibition of full length beta-catenin (1 to 781 residues) (unknown origin) expressed in Escherichia coli BL21 (DE3)-N-terminal biotinylated human BCL9 (350 to 375 residues) protein-protein interaction incubated for 1 hr by Alphascreen assay
T1 sequence (P35222 whole entry): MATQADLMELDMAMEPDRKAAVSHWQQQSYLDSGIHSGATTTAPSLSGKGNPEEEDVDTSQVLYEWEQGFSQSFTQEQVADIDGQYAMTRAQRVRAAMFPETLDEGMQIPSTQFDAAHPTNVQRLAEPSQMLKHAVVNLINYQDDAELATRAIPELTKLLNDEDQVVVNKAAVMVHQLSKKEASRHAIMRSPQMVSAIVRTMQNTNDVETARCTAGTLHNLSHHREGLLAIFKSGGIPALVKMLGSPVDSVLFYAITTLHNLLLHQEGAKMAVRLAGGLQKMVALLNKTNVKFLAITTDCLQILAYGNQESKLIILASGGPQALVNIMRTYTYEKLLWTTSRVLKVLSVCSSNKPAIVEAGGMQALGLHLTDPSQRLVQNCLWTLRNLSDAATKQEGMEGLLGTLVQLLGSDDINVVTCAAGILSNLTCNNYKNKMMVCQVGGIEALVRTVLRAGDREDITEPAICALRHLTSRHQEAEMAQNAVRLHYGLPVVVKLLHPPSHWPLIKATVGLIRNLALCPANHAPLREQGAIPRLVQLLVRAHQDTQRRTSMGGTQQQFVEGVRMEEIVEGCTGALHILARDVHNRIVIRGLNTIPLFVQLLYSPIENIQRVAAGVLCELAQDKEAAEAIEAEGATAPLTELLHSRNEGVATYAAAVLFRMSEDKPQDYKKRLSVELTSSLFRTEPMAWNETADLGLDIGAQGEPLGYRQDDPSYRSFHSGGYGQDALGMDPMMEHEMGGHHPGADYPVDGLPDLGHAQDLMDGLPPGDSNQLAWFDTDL
T1 sequence (O00512 whole entry): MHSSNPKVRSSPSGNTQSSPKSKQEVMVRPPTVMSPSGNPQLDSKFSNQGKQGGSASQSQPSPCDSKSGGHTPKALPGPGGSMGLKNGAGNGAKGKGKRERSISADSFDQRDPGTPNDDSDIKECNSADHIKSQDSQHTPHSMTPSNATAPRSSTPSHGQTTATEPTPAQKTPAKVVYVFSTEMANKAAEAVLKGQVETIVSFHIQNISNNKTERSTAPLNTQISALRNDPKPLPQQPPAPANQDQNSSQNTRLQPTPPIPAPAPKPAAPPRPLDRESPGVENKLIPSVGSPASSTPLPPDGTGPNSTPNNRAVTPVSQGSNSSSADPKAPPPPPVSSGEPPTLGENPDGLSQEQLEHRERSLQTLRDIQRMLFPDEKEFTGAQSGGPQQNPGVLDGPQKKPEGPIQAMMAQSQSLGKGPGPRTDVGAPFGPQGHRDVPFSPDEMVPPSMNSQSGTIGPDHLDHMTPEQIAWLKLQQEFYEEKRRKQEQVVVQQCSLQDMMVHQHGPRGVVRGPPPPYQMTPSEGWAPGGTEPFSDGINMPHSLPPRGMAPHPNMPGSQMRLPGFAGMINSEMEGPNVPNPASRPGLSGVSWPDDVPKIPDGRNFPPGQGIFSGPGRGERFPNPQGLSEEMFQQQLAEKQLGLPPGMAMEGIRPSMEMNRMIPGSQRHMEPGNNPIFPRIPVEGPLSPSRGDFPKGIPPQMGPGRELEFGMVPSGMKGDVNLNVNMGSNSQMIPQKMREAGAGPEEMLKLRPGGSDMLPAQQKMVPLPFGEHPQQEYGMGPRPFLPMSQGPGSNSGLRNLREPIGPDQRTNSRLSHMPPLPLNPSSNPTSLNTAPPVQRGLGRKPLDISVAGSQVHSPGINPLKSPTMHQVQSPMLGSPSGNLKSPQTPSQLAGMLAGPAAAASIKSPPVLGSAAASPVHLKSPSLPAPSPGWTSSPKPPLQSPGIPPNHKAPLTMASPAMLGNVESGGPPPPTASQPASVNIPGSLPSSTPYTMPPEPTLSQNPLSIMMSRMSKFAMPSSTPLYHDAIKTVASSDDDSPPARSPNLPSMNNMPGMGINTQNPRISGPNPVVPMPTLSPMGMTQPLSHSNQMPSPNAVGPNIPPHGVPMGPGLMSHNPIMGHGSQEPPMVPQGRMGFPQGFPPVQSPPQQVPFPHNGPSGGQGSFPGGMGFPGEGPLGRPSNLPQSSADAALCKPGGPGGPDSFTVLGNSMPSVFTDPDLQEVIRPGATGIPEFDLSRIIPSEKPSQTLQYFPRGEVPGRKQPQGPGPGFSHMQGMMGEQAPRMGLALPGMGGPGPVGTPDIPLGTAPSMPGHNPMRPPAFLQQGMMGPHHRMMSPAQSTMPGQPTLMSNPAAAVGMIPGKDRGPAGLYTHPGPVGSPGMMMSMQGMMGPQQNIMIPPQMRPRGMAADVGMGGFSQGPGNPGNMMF

MDA-MB-231 = experiment: Antiproliferative activity against human MDA-MB-231 cells assessed as inhibition of cell growth measured by MTS method; assay type: functional, cell-based
SW480 [2] = experiment: Inhibition of Wnt/beta-catenin transactivation signalling in human SW480 cells transfected with beta-catenin plasmid at 10 uM by TOPFlash luciferase assay; assay type: cell-based
[3] = Effect of Wnt/beta-Catenin signaling pathway in human SW480 cells assessed as reduction in Cyclin D1 level at 10 uM incubated for 24 hrs by qRT-PCR analysis relative to control; assay type: functional; conditions: SW480, 24 h
SW480 [4] = experiment: Effect of Wnt/beta-Catenin signaling pathway in human SW480 cells assessed as decrease in Cyclin D1 level at 20 uM incubated for 24 hrs by Western blot analysis; assay type: functional, cell-based; conditions: DDE = dose-dependent effect
[5] = Metabolic stability in human Hepatocyte assessed as half life; assay type: ADME, cell-based; conditions: hepatocytes
[6] = Metabolic stability in mouse Hepatocyte assessed as half life; assay type: ADME, cell-based; conditions: hepatocytes
CYP2C9 = CYP2C9 (Homo sapiens, UniProt P11712); experiment: Inhibition of CYP2C9 in human liver microsomes using tolbutamide as substrate at 10 uM in presence of NADPH incubated for 10 mins; assay type: ADME, Microsome; conditions: probe tolbutamide
CYP3A4 = CYP3A4 (Homo sapiens, UniProt P08684); experiment: Inhibition of CYP3A4 in human liver microsomes using Midazolam as substrate at 10 uM in presence of NADPH incubated for 10 mins; assay type: ADME, Microsome; conditions: probe midazolam
[7] = Effect of Wnt/beta-Catenin signaling pathway in human SW480 cells assessed as reduction in HPRT level at 5 uM incubated for 24 hrs by qRT-PCR analysis relative to control; assay type: functional; conditions: SW480, 24 h
[8] = Effect of Wnt/beta-Catenin signaling pathway in human SW480 cells assessed as reduction in Axin2 level at 20 uM incubated for 24 hrs by qRT-PCR analysis relative to control; assay type: functional; conditions: SW480, 24 h
[9] = Effect of Wnt/beta-Catenin signaling pathway in human SW480 cells assessed as reduction in BCL9L level at 20 uM incubated for 24 hrs by qRT-PCR analysis relative to control; assay type: functional; conditions: SW480, 24 h

Sequence of CYP2C9 (P11712 whole entry): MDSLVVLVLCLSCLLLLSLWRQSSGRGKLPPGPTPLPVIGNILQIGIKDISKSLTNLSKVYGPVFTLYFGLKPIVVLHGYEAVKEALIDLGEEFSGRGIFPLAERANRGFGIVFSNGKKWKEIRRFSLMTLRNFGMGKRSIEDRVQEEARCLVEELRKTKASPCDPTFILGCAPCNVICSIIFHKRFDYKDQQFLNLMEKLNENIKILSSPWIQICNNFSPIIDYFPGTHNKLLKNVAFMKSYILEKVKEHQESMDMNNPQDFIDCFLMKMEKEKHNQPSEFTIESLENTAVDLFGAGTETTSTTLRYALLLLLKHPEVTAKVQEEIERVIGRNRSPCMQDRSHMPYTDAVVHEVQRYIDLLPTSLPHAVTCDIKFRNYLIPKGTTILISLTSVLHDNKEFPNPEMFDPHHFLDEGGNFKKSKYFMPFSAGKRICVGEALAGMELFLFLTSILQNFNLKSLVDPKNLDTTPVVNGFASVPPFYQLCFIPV
Sequence of CYP3A4 (P08684 whole entry): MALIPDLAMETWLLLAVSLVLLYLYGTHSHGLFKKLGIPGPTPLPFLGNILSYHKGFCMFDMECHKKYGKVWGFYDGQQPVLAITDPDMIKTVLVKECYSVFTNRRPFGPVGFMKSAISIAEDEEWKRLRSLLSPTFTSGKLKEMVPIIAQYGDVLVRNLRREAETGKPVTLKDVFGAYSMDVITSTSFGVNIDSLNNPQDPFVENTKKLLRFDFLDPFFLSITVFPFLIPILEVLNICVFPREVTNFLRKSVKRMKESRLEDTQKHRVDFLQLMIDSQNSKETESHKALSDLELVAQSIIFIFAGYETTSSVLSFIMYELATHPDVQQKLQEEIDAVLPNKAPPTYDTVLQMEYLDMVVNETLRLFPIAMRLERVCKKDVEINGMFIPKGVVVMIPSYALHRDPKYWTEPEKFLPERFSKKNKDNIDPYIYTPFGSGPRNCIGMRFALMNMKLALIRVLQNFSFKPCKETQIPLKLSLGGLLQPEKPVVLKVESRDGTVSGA

IC50 [1]: 3.4 µM | Ki [1]: 2.7 µM | IC50 (MDA-MB-231): 6.3 µM | half-life [5]: 25.2 min | half-life [6]: 11.6 min | inhibition at 10 min, 10 µM (CYP2C9): 91% | inhibition at 10 min, 10 µM (CYP3A4): 97%
Compound: CC(C)(Oc1cccc(N2CCC[C@@H](C(=O)N(Cc3ccc(-c4cnc5[nH]ccc5c4)cc3)C3CC3)C2)c1)C(=O)N1CCNCC1.Cl
inhibition (SW480 [2]): Active | level, % of control at 10 µM [3]: 54% | inhibition (SW480 [4]): Dde | level, % of control at 5 µM [7]: 99% | level, % of control at 20 µM [8]: 19% | level, % of control at 20 µM [9]: 32%
